Experimental data from doi:10.64898/2025.12.05.692609v2, “Early intervention with a PACAP lactoside following repetitive mild traumatic brain injury prevents persistent LHb hyperactivity and motivational deficits in male mice” (bioRxiv, 2025).
Where two headings read alike, the source gives them in different places. Where a SMILES comes first, the peptide text is derived from it. [ ]: non-standard residue; d: D form. The star is where a group is joined. X1 = OC[C@H]1O[C@@H](O[C@H]2[C@H](O)[C@@H](O)[C@H](*)O[C@@H]2CO)[C@H](O)[C@@H](O)[C@H]1O; Nle = CCCC[C@H](N)C(=O)O

Tested on: LHb neurons
Type: in vivo, male C57BL/6 mice
[1] = mTBI+early TES2320: 10 mg/kg i.p. within 30 min after each of 5 injuries, cell-attached V=0, ~4 weeks post-injury, n=138 cells/13 mice
[2] = mTBI+late TES2320: single 10 mg/kg i.p. injection one month post-mTBI, cell-attached V=0, n=58 cells/5 mice

CCCC[C@H](NC(=O)[C@H](CCC(N)=O)NC(=O)[C@H](CCCCN)NC(=O)[C@H](CCCNC(=N)N)NC(=O)[C@H](Cc1ccc(O)cc1)NC(=O)[C@H](CCCNC(=N)N)NC(=O)[C@H](CO)NC(=O)[C@H](Cc1ccc(O)cc1)NC(=O)[C@H](CO)NC(=O)[C@H](CC(=O)O)NC(=O)[C@@H](NC(=O)[C@H](Cc1ccccc1)NC(=O)[C@@H](NC(=O)CNC(=O)[C@H](CC(=O)O)NC(=O)[C@H](CO)NC(=O)[C@@H](N)Cc1c[nH]cn1)[C@@H](C)CC)[C@@H](C)O)C(=O)N[C@@H](C)C(=O)N[C@H](C(=O)N[C@@H](CCCCN)C(=O)N[C@@H](CCCCN)C(=O)N[C@@H](Cc1ccc(O)cc1)C(=O)N[C@@H](CC(C)C)C(=O)N[C@@H](CO[C@@H]1O[C@H](CO)[C@@H](O[C@@H]2O[C@H](CO)[C@H](O)[C@H](O)[C@H]2O)[C@H](O)[C@H]1O)C(N)=O)C(C)C [TES2320] (H-HSDGIFTDSYSRYRKQ[Nle]AVKKYLS(X1)-NH2; N-terminus assumed)
effect on mTBI-induced spontaneous LHb tonic hyperactivity (early intervention, 10 mg/kg i.p. x5, vs mTBI+vehicle p<0.01, Chi squared test): prevented | effect on mTBI-induced spontaneous LHb tonic hyperactivity (late intervention, single 10 mg/kg i.p. one month post-mTBI, vs mTBI+vehicle p<0.05, Chi squared test): reversed | LHb neurons bursting, spontaneous activity [1]: 4% | LHb neurons silent, spontaneous activity [1]: 50% | LHb neurons tonic, spontaneous activity [1]: 46% | LHb neurons bursting, spontaneous activity [2]: 5% | LHb neurons silent, spontaneous activity [2]: 48% | LHb neurons tonic, spontaneous activity [2]: 47%
